Patent US8933103B2, “Pyridone derivatives” (Daiichi Sankyo Company, Limited, priority 2012, dated 2015)

Target: T1, AXL (fusion protein of amino acids 464-885 of the intracellular domain of human AXL with glutathione transferase) (Homo sapiens, UniProt P30530)
T1 sequence (P30530 464-885 isoform P30530-2): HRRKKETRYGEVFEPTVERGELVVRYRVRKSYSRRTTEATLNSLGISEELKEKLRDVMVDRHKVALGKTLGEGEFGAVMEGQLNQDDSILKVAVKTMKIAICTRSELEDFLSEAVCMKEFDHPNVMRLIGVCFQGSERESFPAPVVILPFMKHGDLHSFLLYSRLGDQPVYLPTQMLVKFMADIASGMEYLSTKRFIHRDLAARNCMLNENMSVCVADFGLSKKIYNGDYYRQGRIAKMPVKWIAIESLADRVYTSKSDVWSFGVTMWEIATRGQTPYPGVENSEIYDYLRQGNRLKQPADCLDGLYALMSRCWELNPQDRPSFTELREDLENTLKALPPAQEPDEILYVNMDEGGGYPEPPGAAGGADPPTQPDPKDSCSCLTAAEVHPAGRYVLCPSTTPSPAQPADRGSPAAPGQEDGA
Test: Cell-Free Axl Kinase Inhibitory Activity

SMILES | IC50
COc1ccc(-c2cnc(N)c(-c3ccc(NC(=O)c4cn(Cc5ccc(F)cc5)cc(-c5nnc(C)o5)c4=O)cc3)c2)cc1OC [Example 28, N-{4-[2-Amino-5-(3,4-dimethoxyphenyl)pyridin-3-yl]phenyl}-1-(4-fluorobenzyl)-5-(5-methyl-1,3,4-oxadiazol-2-yl)-4-oxo-1,4-dihydropyridine-3-carboxamide] | 0.1 to 1 nM
COc1ccc(-c2cnc(N)c(-c3ccc(NC(=O)c4cn(CC(F)(F)F)cc(-c5ccc(F)cc5)c4=O)cc3F)c2)cc1OC [Example 29, N-{4-[2-Amino-5-(3,4-dimethoxyphenyl)pyridin-3-yl]-3-fluorophenyl}-5-(4-fluorophenyl)-4-oxo-1-(2,2,2-trifluoroethyl)-1,4-dihydropyridine-3-carboxamide] | 0.1 to 1 nM
COc1cc(-c2cnc(N)c(-c3ccc(NC(=O)c4cn(CC(F)(F)F)cc(-c5ccc(F)cc5)c4=O)cc3)c2)ccc1O [Example 37, N-{4-[2-Amino-5-(4-hydroxy-3-methoxyphenyl)pyridin-3-yl]phenyl}-5-(4-fluorophenyl)-4-oxo-1-(2,2,2-trifluoroethyl)-1,4-dihydropyridine-3-carboxamide] | 1 to 10 nM
COCCOc1ccc(-c2cnc(N)c(-c3ccc(NC(=O)c4cn(CC(F)(F)F)cc(-c5ccc(F)cc5)c4=O)cc3)c2)cc1OC [Example 38, N-(4-{2-Amino-5-[3-methoxy-4-(2-methoxyethoxy)phenyl]pyridin-3-yl}phenyl)-5-(4-fluorophenyl)-4-oxo-1-(2,2,2-trifluoroethyl)-1,4-dihydropyridine-3-carboxamide] | 0.1 to 1 nM
COc1cc(-c2cnc(N)c(-c3ccc(NC(=O)c4cn(CC(F)(F)F)cc(-c5ccc(F)cc5)c4=O)cc3)c2)ccc1OCCN1CCCC1 [Example 39, N-[4-(2-Amino-5-{3-methoxy-4-[2-(pyrrolidin-1-yl)ethoxy]phenyl}pyridin-3-yl)phenyl]-5-(4-fluorophenyl)-4-oxo-1-(2,2,2-trifluoroethyl)-1,4-dihydropyridine-3-carboxamide] | 0.1 to 1 nM
COc1cc(-c2cnc(N)c(-c3ccc(NC(=O)c4cn(CCF)cc(-c5ccccc5)c4=O)cc3)c2)ccc1OCCN1CCCC1 [Example 40, N-(4-{2-Amino-5-[3-methoxy-4-(2-pyrrolidin-1-ylethoxy)phenyl]pyridin-3-yl}phenyl)-1-(2-fluoroethyl)-4-oxo-5-phenyl-1,4-dihydropyridine-3-carboxamide] | 0.1 to 1 nM
COc1cc(-c2cnc(N)c(-c3ccc(NC(=O)c4cn(Cc5ccccc5)cc(-c5ccc(F)cc5)c4=O)cc3)c2)ccc1OC[C@H]1COCCO1 [Example 41, N-[4-(2-Amino-5-{4-[(2R)-1,4-dioxan-2-ylmethoxy]-3-methoxyphenyl}pyridin-3-yl)phenyl]-1-benzyl-5-(4-fluorophenyl)-4-oxo-1,4-dihydropyridine-3-carboxamide] | 1 to 10 nM
COc1cc(-c2cnc(N)c(-c3ccc(NC(=O)c4cn(CC(F)(F)F)cc(-c5ccc(F)cc5)c4=O)cc3)c2)ccc1OC[C@H]1COCCO1 [Example 42, N-[4-(2-Amino-5-{4-[(2R)-1,4-dioxan-2-ylmethoxy]-3-methoxyphenyl}pyridin-3-yl)phenyl]-5-(4-fluorophenyl)-4-oxo-1-(2,2,2-trifluoroethyl)-1,4-dihydropyridine-3-carboxamide] | 0.1 to 1 nM
COc1cc(-c2cnc(N)c(-c3ccc(NC(=O)c4cn(CCF)cc(-c5ccc(F)cc5)c4=O)cc3)c2)ccc1OC[C@H]1COCCO1 [Example 43, N-[4-(2-Amino-5-{4-[(2R)-1,4-dioxan-2-ylmethoxy]-3-methoxyphenyl}pyridin-3-yl)phenyl]-1-(2-fluoroethyl)-5-(4-fluorophenyl)-4-oxo-1,4-dihydropyridine-3-carboxamide] | 1 to 10 nM
COc1cc(-c2cnc(N)c(-c3ccc(NC(=O)c4cn(CCF)cc(-c5ccccc5)c4=O)cc3)c2)ccc1OC[C@H]1COCCO1 [Example 44, N-[4-(2-Amino-5-{4-[(2R)-1,4-dioxan-2-ylmethoxy]-3-methoxyphenyl}pyridin-3-yl)phenyl]-1-(2-fluoroethyl)-4-oxo-5-phenyl-1,4-dihydropyridine-3-carboxamide] | 1 to 10 nM
CCn1cc(C(=O)Nc2ccc(-c3cc(-c4ccc(OC[C@H]5COCCO5)c(OC)c4)cnc3N)cc2)c(=O)c(-c2ccccc2)c1 [Example 45, N-[4-(2-Amino-5-{4-[(2R)-1,4-dioxan-2-ylmethoxy]-3-methoxyphenyl}pyridin-3-yl)phenyl]-1-ethyl-4-oxo-5-phenyl-1,4-dihydropyridine-3-carboxamide] | 1 to 10 nM
CCn1cc(C(=O)Nc2ccc(-c3cc(-c4ccc(OC[C@H]5COCCO5)c(OC)c4)cnc3N)cc2)c(=O)c(-c2ccc(F)cc2)c1 [Example 46, N-[4-(2-Amino-5-{4-[(2R)-1,4-dioxan-2-ylmethoxy]-3-methoxyphenyl}pyridin-3-yl)phenyl]-1-ethyl-5-(4-fluorophenyl)-4-oxo-1,4-dihydropyridine-3-carboxamide] | 1 to 10 nM
CCn1cc(C(=O)Nc2ccc(-c3cc(-c4cnn(C)c4)cnc3N)cc2)c(=O)c(-c2ccc(F)cc2)c1 [Example 47, N-{4-[2-Amino-5-(1-methyl-1H-pyrazol-4-yl)pyridin-3-yl]phenyl}-1-ethyl-5-(4-fluorophenyl)-4-oxo-1,4-dihydropyridine-3-carboxamide] | 1 to 10 nM
Cn1cc(-c2cnc(N)c(-c3ccc(NC(=O)c4cn(CCF)cc(-c5ccc(F)cc5)c4=O)cc3)c2)cn1 [Example 48, N-{4-[2-Amino-5-(1-methyl-1H-pyrazol-4-yl)pyridin-3-yl]phenyl}-1-(2-fluoroethyl)-5-(4-fluorophenyl)-4-oxo-1,4-dihydropyridine-3-carboxamide] | 1 to 10 nM
Cn1cc(-c2cnc(N)c(-c3ccc(NC(=O)c4cn(CC(F)F)cc(-c5ccc(F)cc5)c4=O)cc3)c2)cn1 [Example 49, N-{4-[2-Amino-5-(1-methyl-1H-pyrazol-4-yl)pyridin-3-yl]phenyl}-1-(2,2-difluoroethyl)-5-(4-fluorophenyl)-4-oxo-1,4-dihydropyridine-3-carboxamide] | 1 to 10 nM
Cn1cc(-c2cnc(N)c(-c3ccc(NC(=O)c4cn(CC(F)(F)F)cc(-c5ccc(F)cc5)c4=O)cc3)c2)cn1 [Example 50, N-{4-[2-Amino-5-(1-methyl-1H-pyrazol-4-yl)pyridin-3-yl]phenyl}-5-(4-fluorophenyl)-4-oxo-1-(2,2,2-trifluoroethyl)-1,4-dihydropyridine-3-carboxamide] | 0.1 to 1 nM
Cn1cc(-c2cnc(N)c(-c3ccc(NC(=O)c4cn(Cc5ccccc5)cc(-c5ccc(F)cc5)c4=O)cc3)c2)cn1 [Example 51, N-{4-[2-Amino-5-(1-methyl-1H-pyrazol-4-yl)pyridin-3-yl]phenyl}-1-benzyl-5-(4-fluorophenyl)-4-oxo-1,4-dihydropyridine-3-carboxamide] | 0.1 to 1 nM
CCn1cc(C(=O)Nc2ccc(-c3cc(-c4cnn(C)c4)cnc3N)cc2)c(=O)c(-c2ccccc2)c1 [Example 52, N-{4-[2-Amino-5-(1-methyl-1H-pyrazol-4-yl)pyridin-3-yl]phenyl}-1-ethyl-4-oxo-5-phenyl-1,4-dihydropyridine-3-carboxamide] | 1 to 10 nM
Cn1cc(-c2cnc(N)c(-c3ccc(NC(=O)c4cn(CCF)cc(-c5ccccc5)c4=O)cc3)c2)cn1 [Example 53, N-{4-[2-Amino-5-(1-methyl-1H-pyrazol-4-yl)pyridin-3-yl]phenyl}-1-(2-fluoroethyl)-4-oxo-5-phenyl-1,4-dihydropyridine-3-carboxamide] | 1 to 10 nM
Cn1cc(-c2cnc(N)c(-c3ccc(NC(=O)c4cn(CC(F)(F)F)cc(-c5ccccc5)c4=O)cc3)c2)cn1 [Example 54, N-{4-[2-Amino-5-(1-methyl-1H-pyrazol-4-yl)pyridin-3-yl]phenyl}-4-oxo-5-phenyl-1-(2,2,2-trifluoroethyl)-1,4-dihydropyridine-3-carboxamide] | 1 to 10 nM
Cn1cc(-c2cnc(N)c(-c3ccc(NC(=O)c4cn(CCF)cc(-c5ccccc5)c4=O)cc3F)c2)cn1 [Example 55, N-{4-[2-Amino-5-(1-methyl-1H-pyrazol-4-yl)pyridin-3-yl]-3-fluorophenyl}-1-(2-fluoroethyl)-4-oxo-5-phenyl-1,4-dihydropyridine-3-carboxamide] | 1 to 10 nM
Cn1cc(-c2cnc(N)c(-c3ccc(NC(=O)c4cn(Cc5ccc(F)cc5)ccc4=O)cc3)c2)cn1 [Example 56, N-{4-[2-Amino-5-(1-methyl-1H-pyrazol-4-yl)pyridin-3-yl]phenyl}-1-(4-fluorobenzyl)-4-oxo-1,4-dihydropyridine-3-carboxamide] | 1 to 10 nM
Cc1cc(=O)c(C(=O)Nc2ccc(-c3cc(-c4cnn(C)c4)cnc3N)cc2)cn1Cc1ccc(F)cc1 [Example 57, N-{4-[2-Amino-5-(1-methyl-1H-pyrazol-4-yl)pyridin-3-yl]phenyl}-1-(4-fluorobenzyl)-6-methyl-4-oxo-1,4-dihydropyridine-3-carboxamide] | 1 to 10 nM
Cc1cn(Cc2ccc(F)cc2)cc(C(=O)Nc2ccc(-c3cc(-c4cnn(C)c4)cnc3N)cc2)c1=O [Example 58, N-{4-[2-Amino-5-(1-methyl-1H-pyrazol-4-yl)pyridin-3-yl]phenyl}-1-(4-fluorobenzyl)-5-methyl-4-oxo-1,4-dihydropyridine-3-carboxamide] | 1 to 10 nM
COc1cn(Cc2ccc(F)cc2)cc(C(=O)Nc2ccc(-c3cc(-c4cnn(C)c4)cnc3N)cc2)c1=O [Example 59, N-{4-[2-Amino-5-(1-methyl-1H-pyrazol-4-yl)pyridin-3-yl]phenyl}-1-(4-fluorobenzyl)-5-methoxy-4-oxo-1,4-dihydropyridine-3-carboxamide] | 10 to 20 nM
